Test results as given in patent publication US20260070895A1, “CRYSTALLINE FORMS” (QUIMATRYX, S.L., priority 2022, published 2026).
“Also recorded” adds a separate entry of the source.

Assay: Photostability at solid state (chemical purity by HPLC after illumination)
Format: physicochemical
Conditions: for HPLC peak area, QTX125 RRT 1.00 / HPLC peak area, RRT 1.04 / degradation (in words) / HPLC peak area, RRT 1.12 / colour change of the solid material / HPLC peak area, RRT 1.08 / HPLC peak area, RRT 1.11 / HPLC peak area, RRT 1.20: solid-state; for degradation (in words): up to 171 hours
Experimental: The method for determining purity by HPLC—used throughout these examples—used the following parameters:
The photostability of novel crystalline forms of QTX125 was assessed at solid state and in solution. Where ‘forced illumination’ conditions were used, samples were illuminated at 12 Klux/hour and 2.8 UV W/m^2/hour. Samples were stored at a temperature of 30° C. Following incubation, the chemical purity of QTX125 was measured by HPLC.
The following index is provided to aid navigation of the data presented in Tables 3.1.1 to 3.3.6: • 3.1.x—Assessment of the photostability of QTX125 Form 2. • 3.2.x—Assessment of the photostability of amorphous QTX125. • 3.3.x—Assessment of the photostability of the QTX125 1:2 L-Lysine adduct. • 3.x.1—Samples (at solid state) stored in unsealed clear glass bottles, subject to forced illumination. • 3.x.2—Samples (at solid state) sealed under nitrogen in clear glass bottles, subject to forced illumination. • 3.x.3—Samples (at solid state) sealed under nitrogen in amber glass bottles, illuminated under ambient laboratory conditions • 3.x.4—Samples (at solid state) sealed under nitrogen in amber glass bottles, subject to forced illumination. • 3.x.5—Samples (in solution) sealed under nitrogen in amber glass bottles, illuminated under ambient laboratory conditions. • 3.x.6—Samples (in solution) sealed under nitrogen in amber glass bottles, subject to forced illumination.

[1] = sealed under nitrogen in amber glass bottles, ambient laboratory conditions, 0 hours
[2] = sealed under nitrogen in amber glass bottles, ambient laboratory conditions, 3 hours
[3] = sealed under nitrogen in amber glass bottles, ambient laboratory conditions, 26 hours
[4] = sealed under nitrogen in amber glass bottles, ambient laboratory conditions, 74 hours
[5] = sealed under nitrogen in amber glass bottles, ambient laboratory conditions, 171 hours
[6] = sealed under nitrogen in amber glass bottles, ambient laboratory conditions, 171 hours, listed as Form 2
[7] = sealed under nitrogen in amber glass bottles, forced illumination, 0 hours
[8] = sealed under nitrogen in amber glass bottles, forced illumination, 3 hours
[9] = sealed under nitrogen in amber glass bottles, forced illumination, 26 hours
[10] = sealed under nitrogen in amber glass bottles, forced illumination, 74 hours
[11] = sealed under nitrogen in amber glass bottles, forced illumination, 171 hours
[12] = sealed under nitrogen in amber glass bottles, forced illumination, 171 hours, listed as Form 2
[13] = sealed under nitrogen in clear glass bottles, forced illumination
[14] = sealed under nitrogen in clear glass bottles, forced illumination, 0 hours
[15] = sealed under nitrogen in clear glass bottles, forced illumination, 3 hours
[16] = sealed under nitrogen in clear glass bottles, forced illumination, 26 hours
[17] = sealed under nitrogen in clear glass bottles, forced illumination, 74 hours
[18] = sealed under nitrogen in clear glass bottles, forced illumination, 171 hours
[19] = unsealed clear glass bottles, forced illumination, 0 hours
[20] = unsealed clear glass bottles, forced illumination, 3 hours
[21] = unsealed clear glass bottles, forced illumination, 26 hours
[22] = unsealed clear glass bottles, forced illumination, 74 hours

O=C(NO)c1ccc(CNC(=O)c2[nH]c(-c3ccc(O)cc3)cc2-c2ccoc2)cc1 [QTX125 Form 2, 3-(3-Furyl)-N-{4-[(hydroxyamino)carbonyl]benzyl}-5-(4-hydroxyphenyl)-1H-pyrrole-2-carboxamide]
photostability as compared to amorphous QTX125 (at solid state): enhanced photostability; also recorded: improved photostability | HPLC peak area, QTX125 RRT 1.00 [1]: 98.21% | HPLC peak area, RRT 1.04 [1]: 0.98% | HPLC peak area, QTX125 RRT 1.00 [2]: 97.35% | HPLC peak area, RRT 1.04 [2]: 1.06% | HPLC peak area, QTX125 RRT 1.00 [3]: 98.11% | HPLC peak area, RRT 1.04 [3]: 1.07% | HPLC peak area, QTX125 RRT 1.00 [4]: 98.83% | HPLC peak area, RRT 1.04 [4]: 0.55% | HPLC peak area, QTX125 RRT 1.00 [5]: 98.12% | HPLC peak area, RRT 1.04 [5]: 1.21% | HPLC peak area, QTX125 RRT 1.00 [6]: 98.12% | HPLC peak area, RRT 1.04 [6]: 1.21% | degradation (in words) (sealed under nitrogen in amber glass bottles, ambient laboratory conditions): little evidence of degradation | HPLC peak area, QTX125 RRT 1.00 [7]: 98.21% | HPLC peak area, RRT 1.04 [7]: 0.98% | HPLC peak area, QTX125 RRT 1.00 [8]: 98.23% | HPLC peak area, RRT 1.04 [8]: 0.99% | HPLC peak area, QTX125 RRT 1.00 [9]: 97.82% | HPLC peak area, RRT 1.04 [9]: 1.22% | HPLC peak area, QTX125 RRT 1.00 [10]: 97.70% | HPLC peak area, RRT 1.04 [10]: 1.06% | HPLC peak area, QTX125 RRT 1.00 [11]: 95.40% | HPLC peak area, RRT 1.04 [11]: 2.55% | HPLC peak area, RRT 1.12 [11]: 0.28% | HPLC peak area, QTX125 RRT 1.00 [12]: 95.40% | HPLC peak area, RRT 1.04 [12]: 2.55% | HPLC peak area, RRT 1.12 [12]: 0.28% | degradation (in words) (sealed under nitrogen in amber glass bottles, forced illumination): degrade slightly | colour change of the solid material [13]: change in colour from off white to dark green | HPLC peak area, QTX125 RRT 1.00 [14]: 98.21% | HPLC peak area, RRT 1.04 [14]: 0.98% | HPLC peak area, QTX125 RRT 1.00 [15]: 97.78% | HPLC peak area, RRT 1.04 [15]: 1.29% | HPLC peak area, QTX125 RRT 1.00 [16]: 96.16% | HPLC peak area, RRT 1.04 [16]: 2.16% | HPLC peak area, QTX125 RRT 1.00 [17]: 84.98% | HPLC peak area, RRT 1.04 [17]: 5.99% | HPLC peak area, RRT 1.08 [17]: 1.24% | HPLC peak area, RRT 1.11 [17]: 0.52% | HPLC peak area, RRT 1.20 [17]: 0.66% | HPLC peak area, QTX125 RRT 1.00 [18]: 82.33% | HPLC peak area, RRT 1.04 [18]: 9.95% | HPLC peak area, RRT 1.08 [18]: 0.41% | HPLC peak area, RRT 1.11 [18]: 0.86% | HPLC peak area, RRT 1.20 [18]: 0.22% | degradation (in words) [13]: degrade to two principal components | colour change of the solid material (unsealed clear glass bottles, forced illumination): change in colour from off white to dark green | HPLC peak area, QTX125 RRT 1.00 [19]: 98.21% | HPLC peak area, RRT 1.04 [19]: 0.98% | HPLC peak area, QTX125 RRT 1.00 [20]: 97.68% | HPLC peak area, RRT 1.04 [20]: 1.38% | HPLC peak area, QTX125 RRT 1.00 [21]: 95.59% | HPLC peak area, RRT 1.04 [21]: 2.38% | HPLC peak area, QTX125 RRT 1.00 [22]: 90.53% | HPLC peak area, RRT 1.04 [22]: 4.90% | HPLC peak area, QTX125 RRT 1.00 (unsealed clear glass bottles, forced illumination, 171 hours): 83.78%
